Test results published in patent publication US8481592B2, “Uses of sesquiterpene derivatives” (Kwang Dong Pharm Co., Ltd., priority 2008, dated 2013).
Where a name gives a salt, the structure may show the parent alone. Marks after values point to notes of the source that are not given here.

What was measured:
[1] = test system: C. elegans; assay: Anti-obesity effect (fat content by Nile red staining) in C. elegans; assay type: in vivo, Caenorhabditis elegans; set-up: key to Fat content: A low fat content was indicated by +1; a high fat content was assigned with +4; conditions: for Fat content: Nile red staining; for inhibitory effect on adipogenesis: low concentration of 1 μg/ml
Experimental: Using a dissecting microscope (×50 magnification), C. elegans at the 4th stage (L4, the imaginal stage) was transferred to 3 ml of a cholesterol-supplemented S-medium (containing NaCl, K2HPO4, KH2PO4, cholesterol, citrate, trace metals, CaCl2 and MgSO4), and 100 μl of E. coli OP50 (OD600=0.2) liquid-cultured overnight before 1 day of experiment was added thereto. The Pterocarpus indicus fraction sample was added to the liquid media containing C. elegans, followed by rotary culture in a dark room at 16° C. and 100 rpm. The water-insoluble sample was dissolved in DMSO and added to the culture media. The final concentration of DMSO was adjusted below 1%. […] 24 hours after the sample was added to C. elegans, 30 μl of a Nile red dye at a concentration of 10 μg/ml was added (final concentration of Nile red was adjusted to 100 ng/ml) to the media, followed by continuous rotary culture for 2 days.
In order to arrest the locomotory movement of C. elegan, 20 μl of 0.3% NaN3 was dropped on a slide glass to which 100 μl of C. elegans cultured in the presence of Nile red for 2 days was added. Under a fluorescence microscope, adipocytes of C. elegans emitting red fluorescence in a dark room were micrographed and compared with the control group to thereby determine the amount of fat. A low fat content was indicated by +1, whereas a high fat content was assigned with +4. Adult (L4 stage) C. elegans immediately prior to egg-laying were used in this Example. Therefore, the eggs were hatched after sample treatment and most of adult C. elegans were killed at 3 day post-treatment. A fat content was examined in C. elegans which had newly hatched and grown.

[2] = Body weight gain and total visceral fat weight in mice fed high fat diet containing sesquiterpene compound; assay type: in vivo, mouse; conditions: for Body weight gain / total visceral fat weight: HFD with 0.2% compound in diet, C57BL mice, 8 weeks; for total visceral fat weight: epididymal, perirenal, mesenteric and abdominal fat
Source text: Obesity-inducible diet used in the present experiment was high fat diet (HFD: 40% fat calorie, 17 g Lard+3% maize oil/100 g diet) developed by the present inventors and the composition of diet containing sesquiterpene compounds was equal to that of HFD but each 8 sesquiterpene compounds with a concentration of 0.2% was included in diet [cedryl acetate-containing diet, (−)-α-cedrene-containing diet, (+)-β-cedrene-containing diet, cedrene epoxide-containing diet, methyl cedryl ether-containing diet, methyl cedryl ketone-containing diet, cedrenol-containing diet and (+)-cedrol-containing diet]. The composition of diet is described in the following Table 5.
6-old-week C57BL/63 male mice were adapted to laboratory environment during one week and divided into HFD control and 8 test groups according to randommized block design. […] Diet was supplied with water at 10-11 o'clock every morning, and intake amount of diet and body weight was measured every day and once of three days, respectively. The body weight was measure at 2 hrs after removing feed bin to block sudden change of body weight according to feed intake, and feed efficiency was calculated by dividing body weight gain by amount of total intake amount of diet during total experimental period which is from initial day supplying experimental diet to sacrificed day. After experimental animals were fasted for above 12 hrs, they were anesthetized with diethylether, and their blood, liver and visceral fat tissues (epididymal fat, perirenal fat, mesenteric fat and abdominal fat) were collected. And then, they were washed with 0.1 M phosphate-buffered saline (pH 7.4), and their weights were measured. Blood taken from abdominal aorta was centrifuged at 1,000×g for 15 min to separate plasma.

[3] = Biochemical index of blood and liver tissue in mice fed high fat diet containing sesquiterpene compound; assay type: in vivo, mouse; conditions: for Liver Triglyceride / IRI (insulin resistance index) / Plasma Glucose / Plasma Insulin / Plasma Total cholesterol / Plasma Triglyceride: HFD with compound in diet, 8 weeks; for IRI (insulin resistance index) / Plasma Glucose / Plasma Insulin / Plasma Total cholesterol / Plasma Triglyceride: fasted
Experimental: The composition of diet is described in the following Table 5. […] After experimental animals were fasted for above 12 hrs, they were anesthetized with diethylether, and their blood, liver and visceral fat tissues (epididymal fat, perirenal fat, mesenteric fat and abdominal fat) were collected. And then, they were washed with 0.1 M phosphate-buffered saline (pH 7.4), and their weights were measured. […] Concentration of total Plasma cholesterol, triglyceride and glucose was measured twice according to commercially available measurement kit (Bio Clinical system), respectively. Insulin concentration was measured by ELISA using mouse insulin kit (Shibayaki, Japan). […] The homogenate was mixed with 5 ml of chloroform:methanol solution (2:1, v/v), and centrifuged at 1,000×g for 10 min to separate lower phase. […] Three ml of chloroform:methanol:0.05% CaCl2 solution (3:48:47, v/v/v) were added to the resulting lower phase, and thoroughly mixed for 1 min. The mixture was centrifuged at 1,000×g for 10 min. The final lower phase was completely dried on nitrogen gas, and the dried lipid was dissolved in 1 ml of methanol to use analysis of lipid component. Triglyceride concentration in lipid extracts from liver tissues was measured according to commercially available measurement kit (Bio Clinical system) equal to that used in analysis of plasma.

[4] = Physical characteristics of the compounds (solubility, stability); conditions: easily dissolved in organic solvent having lower polarity than ethanol, but not water

SMILES	Fat content ([1]; sample concentration 1 μg/ml)	Fat content ([1]; sample concentration 10 μg/ml)	Fat content ([1]; sample concentration 100 μg/ml)	Body weight gain [2] [g/8 weeks]	total visceral fat weight [2] [mg/g body weight]	Liver Triglyceride [3] [µmol/g]	IRI (insulin resistance index) [3]	Plasma Glucose [3] [mmol/L]	Plasma Insulin [3] [ng/mL]	Plasma Total cholesterol [3] [mmol/L]	Plasma Triglyceride [3] [mmol/L]	Solubility [4]	inhibitory effect on adipogenesis [1]	further results
C[C@@H]1CC[C@H]2C(C)(C)[C@H]3C[C@@]12CC1OC13C (stereo partly shown) [cedrene epoxide, Cedrene epoxide]	+4	+3	+2	12.4 ± 1.36	65.6 ± 4.43	27.8 ± 2.41	0.94 ± 0.14* 10^−3 pmol insulin × mmol glucose × L^−2	7.34 ± 0.68	0.71 ± 0.04	2.81 ± 0.18	1.32 ± 0.08	Fat soluble	–	–
CC(=O)O[C@]1(C)CC[C@@]23C[C@@H]1C(C)(C)[C@@H]2CC[C@H]3C [Cedryl acetate, cedryl acetate]	+4	+3	+2	8.54 ± 0.84	46.4 ± 3.12	23.8 ± 2.33	0.44 ± 0.06* 10^−3 pmol insulin × mmol glucose × L^−2	4.67 ± 0.40	0.49 ± 0.07	2.53 ± 0.10	1.12 ± 0.06	Fat soluble	–	blood insulin concentration reduced compared to HFD ([3]; 8-week): 49%; fasting glucose reduced compared to HFD ([3]; 8-week): 54%; insulin resistance index reduced compared to HFD ([3]; 8-week): 73%; Plasma triglyceride concentration reduced compared to HFD ([3]; plasma, 8-week): 30%
C[C@@H]1CC[C@H]2C(C)(C)[C@H]3C[C@@]12CC[C@@]3(C)OC=O [cedryl formate, Cedryl formate]	+3	+1	+1	–	–	–	–	–	–	–	–	Fat soluble	notably inhibitory effect on adipogenesis	–
C=C1C2CCC3C2[C@@H](C(C)C)CC[C@@]13C (single isomer, unassigned; (+)) [(+)-sativene]	+2	+2	+1	–	–	–	–	–	–	–	–	Fat soluble	notably inhibitory effect on adipogenesis	–
C=C1CC[C@]23C[C@H]1C(C)(C)C2CC[C@H]3C (stereo partly drawn) [(+)-β-funebrene]	+1	+1	+2	–	–	–	–	–	–	–	–	Fat soluble	notably inhibitory effect on adipogenesis	–
C=C1[C@@H](O)C[C@@]23C[C@@H]1C(C)(C)C2CC[C@H]3C (single isomer, unassigned; (+)) [(+)-8(15)-cedrene-9-ol, (+)-8(15)-Cedren-9-ol]	+2	+1	+2	–	–	–	–	–	–	–	–	Fat soluble	notably inhibitory effect on adipogenesis	–
C=C1CC[C@@]23C[C@@H]1C(C)(C)C2CC[C@H]3C (stereo partly drawn) [(+)-β-cedrene]	+2	+3	+2	7.13 ± 0.89	48.0 ± 8.27	16.6 ± 1.28	0.78 ± 0.11* 10^−3 pmol insulin × mmol glucose × L^−2	6.80 ± 0.41	0.70 ± 0.08	2.57 ± 0.19	1.32 ± 0.11	Fat soluble	notably inhibitory effect on adipogenesis	triglyceride concentration of liver tissue reduced compared to HFD ([3]; 8-week): 63%
CC1=CC[C@]23C[C@H]1C(C)(C)C2CC[C@H]3C (stereo partly drawn) [(+)-α-funebrene]	+3	+2	+2	–	–	–	–	–	–	–	–	Fat soluble	notably inhibitory effect on adipogenesis	–
CO[C@]1(C)CC[C@@]23C[C@@H]1C(C)(C)[C@@H]2CC[C@H]3C [methyl cedryl ether, Methyl cedryl ether]	+1	+2	+2	9.31 ± 0.91	50.8 ± 6.12	24.4 ± 1.37	0.61 ± 0.08* 10^−3 pmol insulin × mmol glucose × L^−2	5.61 ± 0.53	0.67 ± 0.07	2.01 ± 0.24	1.29 ± 0.13	Fat soluble	notably inhibitory effect on adipogenesis	total cholesterol concentration reduced compared to HFD ([3]; plasma, 8-week): 46%
C[C@@H]1CC[C@H]2C(C)(C)[C@H]3C[C@@]12CC[C@@]3(C)O [(+)-cedrol]	+4	+4	+3	10.9 ± 0.85	92.4 ± 5.31	49.1 ± 4.10	1.45 ± 0.22 10^−3 pmol insulin × mmol glucose × L^−2	9.8 ± 0.99	0.86 ± 0.07	2.98 ± 0.20	1.31 ± 0.10	–	–	Visceral fat weight compared to control ([2]; diet fed during 8-week): higher than that in control; all fasting glucose, blood insulin concentration and insulin resistance index in comparison with control ([3]; 8-week): prone to be decreased in comparison with control, but statistical significance was not shown
CC1(C)C=C[C@]23CCC[C@](C)(CCC12)C3 (single isomer, unassigned; (-)) [(−)-clovene, (−)-Clovene]	+2	+2	+2	–	–	–	–	–	–	–	–	Fat soluble	notably inhibitory effect on adipogenesis	–
C[C@@H]1CC[C@H]2C(C)(C)[C@H]3C[C@@]12CC[C@]3(C)O [(−)-epicedrol, (−)—epicedrol]	+1	+1	+3	–	–	–	–	–	–	–	–	–	notably inhibitory effect on adipogenesis	–
CC1=CC[C@@]23C[C@@H]1C(C)(C)C2CC[C@H]3C (stereo partly drawn) [(−)-α-cedrene]	+2	+2	+2	6.73 ± 1.02	40.0 ± 4.31	16.1 ± 0.60	0.75 ± 0.13* 10^−3 pmol insulin × mmol glucose × L^−2	6.41 ± 0.57	0.67 ± 0.04	2.11 ± 0.16	0.81 ± 0.15	Fat soluble	notably inhibitory effect on adipogenesis	triglyceride concentration of liver tissue reduced compared to HFD ([3]; 8-week): 64%; Plasma triglyceride concentration reduced compared to HFD ([3]; plasma, 8-week): 50%
